Reference: patent US20160021879A1, “SYNTHETIC LIPOAMINO ACID GLUCOSAMINE DERIVATIVES FOR IMPROVEMENT OF PLANT GROWTH AND YIELD” (E.I. DU PONT DE NEMOURS AND COMPANY, priority 2013, published 2016)

Columns and labels:
soybean seeds [1] = experiment: Seed germination assay (soybean seeds in Petri dishes, radicle emergence counted); assay type: in vivo; settings: control 24%; for percent germination of treated soybean seeds: 10^-7 M in DI-water, at 20 h, dark, room temperature; for Germination Yield: summary table, 10^-7 M, 20 h
Protocol: Materials were all sterilized before use. An aqueous solution of the test compound (25 mL, 10^−7 M in DI-water) was prepared for a set of five repeat experiments. Five Petri dishes and 100 soybean seeds were used to test one compound. A piece of Whatman filter paper was used to cover the inner side of each Petri dish to allow uniform distribution of testing solution. Twenty soybean seeds were placed on the filter paper area of one Petri dish. Five mL of the test compound solution was carefully poured in the Petri dish. Control experiments were set up the same way with 20 soybean seeds and 5 mL of DI-water per dish without any compounds. The lid was placed on the Petri dish and sealed with Parafilm. Five dishes with repeat experiments were stacked. One stack of dishes was wrapped twice with aluminum foil to prevent the seeds from receiving any light. The stacks were transferred to an incubator maintained at room temperature and the seeds were germinated in the dark. After 20 h, the stacks were pulled out for measurement. The number of germinated seeds was counted and the percent germination on each dish was calculated. Radicle emergence was used as the germination indicator. The dishes were placed unwrapped at room temperature for one day and the number of germinated seeds was counted to ensure seeds were viable and that the germination results were not caused by poor seed quality. Dishes in which over 90% of the seeds germinated were considered normal. The standard deviation of five repeats was calculated. Test results with a 10% or lower standard deviation were considered good. Compounds acting as plant performance enhancers should promote a statistically significant increase in average percentage of germination compared to the control.

soybean seeds [2] = experiment: Plant growth assay (radical length of germinated soybean seeds); assay type: in vivo; settings: control 55%; for percentage of germinated soybean seeds with radical length greater than 1.5 cm: 10^-7 M, germinated 24 h, then light for additional 40 h; for Growth Assay: summary table, seeds with radical length > 1.5 cm
Protocol: Seeds germinated for 24 h using the seed germination assay above were exposed to light for an additional 40 h. The radical length was measured and the percentage of germinating seeds with a radical length greater than 1.5 cm was determined.

SMILES	percent germination of treated soybean seeds (soybean seeds [1])	Germination Yield (soybean seeds [1])	percentage of germinated soybean seeds with radical length greater than 1.5 cm (soybean seeds [2])	Growth Assay (soybean seeds [2])
CCCCCC/C=C\CCCCCCC/C=C/C(=O)NCC(=O)NC1C(OC)OC(CO)C(O)C1O (centres unmarked) [Compound 7, methyl 2-deoxy-2-({[(2E,11Z)-octadeca-2,11-dienoylamino]acetyl}amino)hexopyranoside]	46%	46%	79%	79%
CCCCCC/C=C\CCCCCCCC(=O)NCC(=O)NC1C(OC)OC(CO)C(O)C1O [Compound 9, Methyl 2-deoxy-2-N-({[(9Z)-hexadec-9-enoylamino]acetyl}amino)-β-D-glucopyranoside]	33%	33%	73%	73%
CO[C@@H]1O[C@H](CO)[C@@H](O)[C@H](O)[C@H]1NC(=O)CNC(=O)/C=C/C=C/c1ccccc1 [Compound 11, methyl 2-deoxy-2-[({[(2E,4E)-5-phenylpenta-2,4-dienoyl]amino}acetyl)amino]-β-D-glucopyranoside]	39%	39%	82%	82%
CO[C@@H]1O[C@H](CO)[C@@H](O)[C@H](O)[C@H]1NC(=O)[C@H](Cc1ccccc1)NC(=O)/C=C/C=C/c1ccccc1 [Compound 13, Methyl 2-deoxy-2-({N-[(2E,4E)-5-phenylpenta-2,4-dienoyl]phenylalanyl}amino)-β-D-glucopyranoside]	32%	32%	80%	80%
COC(=O)C(CCC(=O)NC1C(OC)OC(CO)C(O)C1O)NC(=O)/C=C/C=C/c1ccccc1 (centres unmarked) [Compound 15, methyl 5-{[4,5-dihydroxy-6-(hydroxymethyl)-2-methoxytetrahydro-2H-pyran-3-yl]amino}-5-oxo-2-{[(2E,4E)-5-phenylpenta-2,4-dienoyl]amino}pentanoate]	31%	31%	74%	74%
CO[C@@H]1O[C@H](CO)[C@@H](O)[C@H](O)[C@H]1NC(=O)CNC(=O)/C=C/c1cccc(C(F)(F)F)c1 [Compound 17, methyl 2-deoxy-2-{[({(2E)-3-[3-(trifluoromethyl)phenyl]prop-2-enoyl}amino)acetyl]amino}-β-D-glucopyranoside]	44%	44%	86%	86%
COC1OC(CO)C(O)C(O)C1NC(=O)CNC(=O)C#Cc1ccccc1 [Compound 19, Methyl 2-deoxy-2-N-({[(3-phenylprop-2-ynoyl)amino]acetyl}amino)-β-D-glucopyranoside]	30%	30%	71%	71%
CCCCCC/C=C/CCCCCCC/C=C/C(=O)NCC(=O)NC1C(OC2C(CO)OC(OC3C(CO)OC(OC4C(CO)OC(OC)C(NC(C)=O)C4O)C(NC(C)=O)C3O)C(NC(C)=O)C2O)OC(CO)C(O)C1O [Compound 21, Methyl 2-deoxy-2-N-({[(2E,11E)-octadeca-2,11-dienoylamino]acetyl}amino)β-D-glucopyranosyl(1→4)-2-acetamido-2-deoxy-β-D-glucopyranosyl-(1→4)-2 acetamido-2-deoxy-β-D-glucopyranosyl-(1→4)-2 acetamido-2-deoxy-β-D-glucopyranoside]	36%	36%	73%	73%
